{"source": "patent US9918986B2", "about": "“Methods and compounds for preventing osteoarthritis” (UNIVERSITY COLLEGE CARDIFF CONSULTANTS LIMITED, priority 2013, dated 2018)", "origin": "cited, not measured here", "key": {"AMPA receptor": {"system": "AMPA receptor", "details": "cited from earlier work"}, "Kainate receptor": {"system": "Kainate receptor", "details": "cited from earlier work"}, "human RA FLS": {"system": "human RA FLS", "details": "cited from earlier work"}, "rodent arthritis": {"system": "rodent arthritis", "details": "oral administration, cited from earlier work"}, "IL-6 receptor": {"biological_target": "T1, IL-6 receptor (Homo sapiens, UniProt P08887)", "T1 construct": "host or cells: RA patients (endogenous receptor)", "T1 sequence (P08887 20-468)": "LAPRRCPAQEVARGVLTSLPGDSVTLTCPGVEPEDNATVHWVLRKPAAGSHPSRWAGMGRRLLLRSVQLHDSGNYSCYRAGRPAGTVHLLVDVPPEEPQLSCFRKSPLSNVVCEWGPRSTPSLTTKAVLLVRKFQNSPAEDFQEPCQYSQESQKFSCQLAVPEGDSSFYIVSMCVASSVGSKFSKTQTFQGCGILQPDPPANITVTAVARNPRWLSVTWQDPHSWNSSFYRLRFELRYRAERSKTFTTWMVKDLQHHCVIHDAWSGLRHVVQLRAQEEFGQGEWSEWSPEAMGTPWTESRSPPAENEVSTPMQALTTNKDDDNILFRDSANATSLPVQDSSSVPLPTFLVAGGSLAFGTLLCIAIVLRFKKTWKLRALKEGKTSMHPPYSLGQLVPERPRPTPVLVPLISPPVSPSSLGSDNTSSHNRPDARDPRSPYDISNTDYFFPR", "details": "RA patients; cited from earlier work"}}}
{"compound": "NCCCNCCCCNCCCNC(=O)Cc1cccc2ccccc12", "note": "[1-NAS, 1-naphthyl acetyl sperm me]", "values": [{"measurement": "AMPA receptor antagonist", "setting": "AMPA receptor", "result": "Yes"}, {"measurement": "Kainate receptor antagonist", "setting": "Kainate receptor", "result": "No"}]}
{"compound": "Cc1cn(C[C@H](N)C(=O)O)c(=O)n(Cc2cc(-c3ccccc3)sc2C(=O)O)c1=O", "note": "[ACET]", "values": [{"measurement": "AMPA receptor antagonist", "setting": "AMPA receptor", "result": "No"}, {"measurement": "Kainate receptor antagonist", "setting": "Kainate receptor", "result": "Yes"}]}
{"compound": "COc1cc2c(cc1OC)C(c1ccc(N)cc1)=NNC(=O)C2", "note": "[CFM-2, 1-(4′-Aminophenyl)-3,5-dihydro-7,8-dimethoxy-4H-2,3-benzodiazepin-4-one]", "values": [{"measurement": "AMPA receptor antagonist", "setting": "AMPA receptor", "result": "Yes"}, {"measurement": "Kainate receptor antagonist", "setting": "Kainate receptor", "result": "No"}, {"measurement": "MMP-2 expression by FLS", "setting": "human RA FLS", "result": "did not affect"}]}
{"compound": "N#Cc1cc2c(cc1[N+](=O)[O-])=NC(=O)C(=O)N=2", "note": "[CNQX, 6-cyano-7-nitroquinoxaline-2,3-dione]", "values": [{"measurement": "AMPA receptor antagonist", "setting": "AMPA receptor", "result": "Yes"}, {"measurement": "Kainate receptor antagonist", "setting": "Kainate receptor", "result": "Yes"}]}
{"compound": "NC(CCCP(=O)(O)O)C(=O)O", "note": "[D-AP5]", "values": [{"measurement": "MMP-2 expression by FLS", "setting": "human RA FLS", "result": "did not affect"}]}
{"compound": "O=C1N=c2cc([N+](=O)[O-])c([N+](=O)[O-])cc2=NC1=O", "note": "[DNQX, 6,7-dinitroquinoxaline-2,3-dione]", "values": [{"measurement": "AMPA receptor antagonist", "setting": "AMPA receptor", "result": "Yes"}, {"measurement": "Kainate receptor antagonist", "setting": "Kainate receptor", "result": "Yes"}]}
{"compound": "CC1=NN=C(c2ccc(N)cc2)c2cc3c(cc2C1)OCO3", "note": "[GYKI52466, 4-(8-Methyl-9H-1,3-dioxolo[4,5-h][2-,3]benzodiazepin-5-yl)-benzenamine]", "values": [{"measurement": "AMPA receptor antagonist", "setting": "AMPA receptor", "result": "Yes"}, {"measurement": "Kainate receptor antagonist", "setting": "Kainate receptor", "result": "Yes"}, {"measurement": "body weight loss", "setting": "rodent arthritis", "result": "attenuated"}, {"measurement": "hyperalgesia", "setting": "rodent arthritis", "result": "attenuated"}, {"measurement": "primary oedema on the right paw", "setting": "rodent arthritis", "result": "no effect"}, {"measurement": "secondary, generalized inflammation-induced swelling of the left paw", "setting": "rodent arthritis; second phase of chronic disease", "result": "no effect"}]}
{"compound": "O=C(O)c1cc(=O)c2ccccc2[nH]1", "note": "[Kynurenic acid]", "values": [{"measurement": "AMPA receptor antagonist", "setting": "AMPA receptor", "result": "Yes"}, {"measurement": "Kainate receptor antagonist", "setting": "Kainate receptor", "result": "Yes"}]}
{"compound": "CCNC(=O)CC[C@H](N)C(=O)O", "note": "[L-Theanine, gamma-glutamylethylamide or 5-N-ethyl-glutamine]", "values": [{"measurement": "AMPA receptor antagonist", "setting": "AMPA receptor", "result": "Yes"}, {"measurement": "Kainate receptor antagonist", "setting": "Kainate receptor", "result": "Yes"}]}
{"compound": "C[C@]12N[C@H](Cc3ccccc31)c1ccccc12", "note": "[MK801]", "values": [{"measurement": "proMMP-2 release", "setting": "human RA FLS; RA FLS", "result": "significantly increased"}]}
{"compound": "O=C1Nc2c(cc([N+](=O)[O-])c3c2CCCC3)C1=NO", "note": "[NS-102]", "values": [{"measurement": "AMPA receptor antagonist", "setting": "AMPA receptor", "result": "Weak"}, {"measurement": "Kainate receptor antagonist", "setting": "Kainate receptor", "result": "Yes"}]}
{"compound": "O=C(O)[C@@H]1C[C@H]2C[C@@H](CCc3nn[nH]n3)CC[C@H]2CN1", "note": "[Tezampanel]", "values": [{"measurement": "AMPA receptor antagonist", "setting": "AMPA receptor", "result": "Yes"}, {"measurement": "Kainate receptor antagonist", "setting": "Kainate receptor", "result": "Yes"}]}
{"compound": "tocilizumab: anti-IL-6 receptor inhibitor", "values": [{"measurement": "synovitis and radiographic changes", "setting": "IL-6 receptor", "result": "significantly improves"}]}
